Data from patent publication US12667572B2, “Tricyclic compounds useful in the treatment of cancer, autoimmune and inflammatory disorders” (SCHRÖDINGER, INC., priority 2021, dated 2026).

Each compound was assayed against T1, full-length MALT1 protein His-MALT1(1-824) (Homo sapiens, UniProt Q9UDY8) (assay: MALT1 protease assay, Assay 2 (1 nM MALT1, Ac-LRSR-AMC substrate)). Conditions: 1 nM MALT1, 50 μM Ac-LRSR-AMC, 2 h pre-incubation, 8 hr incubation at RT.
T1 construct: full-length MALT1 protein His-MALT1(1-824); His (N); made in house; host or cells: baculovirus-infected insect cells
T1 sequence (Q9UDY8 1-824): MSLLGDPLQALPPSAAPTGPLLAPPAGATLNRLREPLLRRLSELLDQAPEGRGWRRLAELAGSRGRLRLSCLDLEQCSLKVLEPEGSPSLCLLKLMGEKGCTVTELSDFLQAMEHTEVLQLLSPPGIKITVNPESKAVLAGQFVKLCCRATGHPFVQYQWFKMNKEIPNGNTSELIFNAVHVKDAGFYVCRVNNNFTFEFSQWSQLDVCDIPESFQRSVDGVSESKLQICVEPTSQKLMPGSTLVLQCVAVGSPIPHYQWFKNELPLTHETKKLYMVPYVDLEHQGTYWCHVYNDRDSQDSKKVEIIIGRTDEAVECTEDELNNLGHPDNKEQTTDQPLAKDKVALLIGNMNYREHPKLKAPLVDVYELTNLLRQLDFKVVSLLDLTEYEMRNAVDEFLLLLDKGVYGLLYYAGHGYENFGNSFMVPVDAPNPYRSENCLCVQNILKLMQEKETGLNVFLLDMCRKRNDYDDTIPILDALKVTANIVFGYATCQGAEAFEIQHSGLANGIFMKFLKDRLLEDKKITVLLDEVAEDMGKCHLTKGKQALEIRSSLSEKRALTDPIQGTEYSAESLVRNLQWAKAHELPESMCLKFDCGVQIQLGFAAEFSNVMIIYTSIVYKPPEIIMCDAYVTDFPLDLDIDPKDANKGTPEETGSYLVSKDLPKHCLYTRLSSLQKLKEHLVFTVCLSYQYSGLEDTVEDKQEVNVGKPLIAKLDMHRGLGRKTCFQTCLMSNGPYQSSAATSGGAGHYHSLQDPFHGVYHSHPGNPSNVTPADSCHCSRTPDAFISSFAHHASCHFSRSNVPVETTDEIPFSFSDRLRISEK
Format: biochemical
Method in brief: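 Full-length His-MALT1(1-824) from baculovirus-infected insect cells, pre-incubated with compound 2 h at RT (0.1% DMSO). Then 50 μM Ac-LRSR-AMC added. Buffer was Tris pH 7.5 with 600 mM sodium citrate, DTT, EDTA and BSA. Fluorescence (ex 355/em 460 nm) was read after 8 h at RT and normalized to high/low controls. IC50 from non-linear regression.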

Structure (SMILES)	IC50 [nM]
CC1(C)C[C@@H](C(=O)Nc2cnc(OC(F)F)c(C#N)c2)c2cnc3cc(F)nn3c21 (single isomer, unassigned) [Example 83, N-(5-cyano-6-(difluoromethoxy)pyridin-3-yl)-2-fluoro-8,8-dimethyl-7,8-dihydro-6H-cyclopenta[e]pyrazolo[1,5-a]pyrimidine-6-carboxamide]	100 to 1000
Cc1nnn(-c2ncc(NC(=O)C3CC(C)(C)c4c3cnc3cc(Cl)nn43)cc2Cl)n1 (single isomer, unassigned) [Example 141, 2-chloro-N-(5-chloro-6-(5-methyl-2H-tetrazol-2-yl)pyridin-3-yl)-8,8-dimethyl-7,8-dihydro-6H-cyclopenta[e]pyrazolo[1,5-a]pyrimidine-6-carboxamide]	≥ 1000
O=C(Nc1cnc(-n2nccn2)c(C(F)(F)F)c1)[C@H]1C[C@]2(CCO2)c2c1cnc1cc(Cl)nn21 (racemic) [Example 117, (cis)-N-(6-(2H-1,2,3-triazol-2-yl)-5˜(trifluoromethyl)pyridin-3-yl)-2-chloro-6,7-dihydrospiro[cyclopenta[e]pyrazolo[1,5-a]pyrimidine-8,2′-oxetane]-6-carboxamide]	10 to 100
N#Cc1cc(NC(=O)C2CC3(CCOCC3)c3c2cnc2cc(F)nn32)cnc1OC(F)F (single isomer, unassigned) [Example 147, N-(5-cyano-6-(difluoromethoxy)pyridin-3-yl)-2-fluoro-2′,3′,5′,6,6′,7-hexahydrospiro[cyclopenta[e]pyrazolo[1,5-a]pyrimidine-8,4′-pyran]-6-carboxamide]	≥ 1000
CC(C)(O)c1ncc(NC(=O)[C@H]2CC3(CCC3)c3c2cnc2cc(F)nn32)cc1Cl (single isomer, unassigned) [Example 105, N-(5-chloro-6-(2-hydroxypropan-2-yl)pyridin-3-yl)-2′-fluoro-6′,7′-dihydrospiro[cyclobutane-1,8′-cyclopenta[e]pyrazolo[1,5-a]pyrimidine]-6′-carboxamide]	≥ 1000
Cc1cc(NC(=O)C2CC(C)(C)c3c2cnc2cc(F)nn32)cnc1-c1cnn(C)c1 (stereo not drawn) [Example 178, 2-fluoro-8,8-dimethyl-N-(5-methyl-6-(1-methyl-1H-pyrazol-4-yl)pyridin-3-yl)-7,8-dihydro-6H-cyclopenta[e]pyrazolo[1,5-a]pyrimidine-6-carboxamide]	≥ 1000
Cc1c(F)nn2c3c(cnc12)C(C(=O)Nc1cnc(-n2nccn2)c(Cl)c1)CC3(C)C (single isomer, unassigned) [Example 113, N-(5-chloro-6-(2H-1,2,3-triazol-2-yl)pyridin-3-yl)-2-fluoro-3,8,8-trimethyl-7,8-dihydro-6H-cyclopenta[e]pyrazolo[1,5-a]pyrimidine-6-carboxamide]	≥ 1000
CC1(C)C[C@@H](C(=O)Nc2cnc(-n3nccn3)c(Cl)c2)c2cnc3c(F)c(F)nn3c21 (single isomer, unassigned) [Example 121, N-(5-chloro-6-(2H-1,2,3-triazol-2-yl)pyridin-3-yl)-2,3-difluoro-8,8-dimethyl-7,8-dihydro-6H-cyclopenta[e]pyrazolo[1,5-a]pyrimidine-6-carboxamide]	100 to 1000
CNC(=O)c1ncc(NC(=O)[C@@H]2CC(C)(C)c3c2cnc2cc(Cl)nn32)cc1C(F)(F)F (single isomer, unassigned) [Example 154, 2-chloro-8,8-dimethyl-N-(6-(methylcarbamoyl)-5-(trifluoromethyl)pyridin-3-yl)-7,8-dihydro-6H-cyclopenta[e]pyrazolo[1,5-a]pyrimidine-6-carboxamide]	≥ 1000
CC1(C)CC(C(=O)Nc2cc(C(F)F)c(-c3ccno3)c(=O)[nH]2)c2cnc3cc(Cl)nn3c21 (stereo not drawn) [Example 60, 2-chloro-N-(4-(difluoromethyl)-5-(isoxazol-5-yl)-6-oxo-1,6-dihydropyridin-2-yl)-8,8-dimethyl-7,8-dihydro-6H-cyclopenta[e]pyrazolo[1,5-a]pyrimidine-6-carboxamide]	100 to 1000
CC1(C)CC(C(=O)Nc2cnc(-n3nccn3)c(C#N)c2)c2cnc3cc(C(F)F)nn3c21 (single isomer, unassigned) [Example 130, N-(5-cyano-6-(2H-1,2,3-triazol-2-yl)pyridin-3-yl)-2-(difluoromethyl)-8,8-dimethyl-7,8-dihydro-6H-cyclopenta[e]pyrazolo[1,5-a]pyrimidine-6-carboxamide]	10 to 100
CC1(C)CC(C(=O)Nc2cnc(-n3nccn3)c(C#N)c2)c2cnc3cc(F)nn3c21 (single isomer, unassigned) [Example 88, N-(5-cyano-6-(2H-1,2,3-triazol-2-yl)pyridin-3-yl)-2-fluoro-8,8-dimethyl-7,8-dihydro-6H-cyclopenta[e]pyrazolo[1,5-a]pyrimidine-6-carboxamide]	10 to 100
N#Cc1cc(NC(=O)[C@@H]2CC3(CCC3)c3c2cnc2cc(F)nn32)cnc1OC(F)F (single isomer, unassigned) [Example 102, N-(5-cyano-6-(difluoromethoxy)pyridin-3-yl)-2′-fluoro-6′,7′-dihydrospiro[cyclobutane-1,8′-cyclopenta[e]pyrazolo[1,5-a]pyrimidine]-6′-carboxamide]	100 to 1000
CC1(C)CC(C(=O)Nc2cnc(OC(F)F)c(C#N)c2)c2cnn3cc(C(F)F)nc3c21 (single isomer, unassigned) [Example 199, N-(5-cyano-6-(difluoromethoxy)pyridin-3-yl)-2-(difluoromethyl)-9,9-dimethyl-8,9-dihydro-7H-cyclopenta[d]imidazo[1,2-b]pyridazine-7-carboxamide]	10 to 100
CN(C(=O)c1ncc(NC(=O)[C@@H]2CC(C)(C)c3c2cnc2cc(Cl)nn32)cc1C(F)F)C1CC1 (single isomer, unassigned) [Example 72, 2-chloro-N-(6-(cyclopropyl(methyl)carbamoyl)-5-(difluoromethyl)pyridin-3-yl)-8,8-dimethyl-7,8-dihydro-6H-cyclopenta[e]pyrazolo[1,5-a]pyrimidine-6-carboxamide]	≥ 1000

These compounds were tested against T1, full-length MALT1 protein His-MALT1(1-824) (assay: MALT1 protease assay, Assay 1 (2 nM MALT1, Ac-LRSR-AMC substrate)). Conditions: 2 nM MALT1, 50 μM Ac-LRSR-AMC, 2 h pre-incubation, 8 hr incubation at RT.
Format: biochemical
Description: MALT1 protease activity was assessed in an in vitro assay using a tetrapeptide as substrate and full-length MALT1 protein His-MALT1(1-824) purified from baculovirus-infected insect cells. The tetrapeptide substrate is Ac-LRSR-AMC (SM Biochemicals) with Km measured at around 100 μM.
The final assay buffer includes 1 nM (Assay 2) or 2 nM (Assay 1) of MALT1 full-length protein, 50 μM Ac-LRSR-AMC substrate, 50 mM Tris pH 7.5, 600 mM Sodium Citrate, 1 mM DTT, 1 mM EDTA, and 0.05% BSA in 384-well plate format using black microtiter square well plates (Optiplate 384-F, Perkin Elmer).
Test compounds were dissolved in 100% DMSO at stock of 10 mM, with final DMSO concentration 0.1%. Test compounds were pre-incubated with MALT1 protein for 2 h at room temperature. Substrate was added after the pre-incubation and fluorescence signal was measured using Envision at excitation 355 nm and emission 460 nm after 8 hr incubation at RT. Increase in the assay signal was linear over this period and proportional with increase in the enzyme content.
The fluorescence units were transformed to percentage of remaining activity by using the high control (HC, median of fluorescence signal from wells containing MALT1 protein, substrate, and DMSO) and low control (LC, median of fluorescence signal from wells with substrate only) with the formula below: […]
IC50 and Hill coefficients were obtained using Graph Pad Prism (Graph Pad software, Inc, USA) with non-linear regression analysis.

Structure (SMILES)	IC50 [nM]
Cn1nc(-c2ncc(NC(=O)C3CC(C)(C)c4c3cnc3cc(Cl)nn43)cc2Cl)cc1O (stereo not drawn) [Example 42, 2-chloro-N-(5-chloro-6-(5-hydroxy-1-methyl-1H-pyrazol-3-yl)pyridin-3-yl)-8,8-dimethyl-7,8-dihydro-6H-cyclopenta[e]pyrazolo[1,5-a]pyrimidine-6-carboxamide]	≥ 1000
CC1(C)CC[C@@H](C(=O)Nc2cnc(-n3nccn3)c(Cl)c2)c2cnc3cc(Cl)nn3c21 (single isomer, unassigned) [Example 8, 2-chloro-N-(5-chloro-6-(2H-1,2,3-triazol-2-yl)pyridin-3-yl)-9,9-dimethyl-6,7,8,9-tetrahydropyrazolo[1,5-a]quinazoline-6-carboxamide]	≥ 1000
CC1(C)C[C@H](C(=O)Nc2cnc(N3CCCC3)c(Cl)c2)c2cnc3cc(Cl)nn3c21 (single isomer, unassigned) [Example 17, 2-chloro-N-(5-chloro-6-(pyrrolidin-1-yl)pyridin-3-yl)-8,8-dimethyl-7,8-dihydro-6H-cyclopenta[e]pyrazolo[1,5-a]pyrimidine-6-carboxamide]	10 to 100
